Results from patent US6344439B1, “Agents for promoting bone formation” (priority 1995, dated 2002).
Like-named read-outs stand apart in the source and are kept apart here.

What was measured:
[1] = system: osteoblasts of rat fetal calvaria; conditions: for No. of bone tuberculum: Tables 1-2 experiment (non-treated 146.5 ± 10.9); for No. of bone tuberculum / Calcified area: mean ± SD n=4
[2] = system: osteoblasts of rat fetal calvaria; type: cell-based; conditions: for Alkaline phosphatase activity: mean ± SD n=4; for Effect on alkaline phosphatase activity (in words): at 10^−8M
[3] = 10^−8M, Table 1 experiment (non-treated 0.044 ± 0.014)
[4] = 10^−8M, Table 3 experiment (non-treated 0.084 ± 0.008)
[5] = 10^−8M, Table 3 experiment (non-treated 4.46 ± 0.83)

For “Gly-Arg-Gly-Asp-Ser (GRGDS) [reference compound]”, the “No. of bone tuberculum” value ([1]; 10^−4M) was 168.3 ± 17.1 per well, the “No. of bone tuberculum” value ([1]; 10^−6M) was 166.5 ± 10.6 per well and the “Effect on calcification (in words)” value ([1]; at 10^−4M) was “completely prevent”. The “Effect on calcification (in words)” value ([1]; at 10^−6M) was “promote” and the “Effect on the number of bone tuberculum (in words)” value (from here on “Effect on the number”) ([1]; at 10^−6M and 10^−4M ("these concentrations")) was “tendency to be increased”.

Work on C[C@@H]1C[C@H]2[C@@H]3CCC4=CC(=O)C=C[C@]4(C)[C@@]3(F)[C@@H](O)C[C@]2(C)[C@@]1(O)C(=O)CO [Dexamethasone, reference compound] yielded an Alkaline phosphatase activity [2, 3] of 0.181 ± 0.018 μM/min/well, an Alkaline phosphatase activity [2, 4] of 0.143 ± 0.015 μM/min/well and a Calcified area [1, 5] of 13.82 ± 1.20 mm^2/well. The Calcified area ([1]; 10^−8M, Table 4 experiment (non-treated 2.56 ± 0.11)) was 12.17 ± 1.05 mm^2/well and the “No. of bone tuberculum” value ([1]; 10^−8M) was 307.3 ± 34.1 per well.

Compound Kistrin has an Alkaline phosphatase activity ([2]; 10^−5M, Table 3 experiment (non-treated 0.084 ± 0.008)) of 0.085 ± 0.009 μM/min/well, an Alkaline phosphatase activity ([2]; 10^−6M, Table 1 experiment (non-treated 0.044 ± 0.014)) of 0.040 ± 0.003 μM/min/well and an Alkaline phosphatase activity ([2]; 10^−6M, Table 3 experiment (non-treated 0.084 ± 0.008)) of 0.119 ± 0.008 μM/min/well. For the same compound, the Alkaline phosphatase activity ([2]; 10^−7M, Table 1 experiment (non-treated 0.044 ± 0.014)) was 0.051 ± 0.007 μM/min/well, the Alkaline phosphatase activity ([2]; 10^−7M, Table 3 experiment (non-treated 0.084 ± 0.008)) was 0.133 ± 0.006 μM/min/well and the Alkaline phosphatase activity [2, 3] was 0.067 ± 0.005 μM/min/well. The Alkaline phosphatase activity [2, 4] was 0.126 ± 0.006 μM/min/well, the Alkaline phosphatase activity ([2]; 10^−9M, Table 1 experiment (non-treated 0.044 ± 0.014)) was 0.051 ± 0.008 μM/min/well and the “Effect on alkaline phosphatase activity (in words)” value [2] was “promote”. The “Effect on alkaline phosphatase activity (in words)” value ([2]; listed as kistrin) was “Promoted”, the Calcified area ([1]; 10^−5M, Table 3 experiment (non-treated 4.46 ± 0.83)) was 4.54 ± 0.88 mm^2/well and the Calcified area ([1]; 10^−6M, Table 3 experiment (non-treated 4.46 ± 0.83)) was 7.93 ± 1.37 mm^2/well. For the same compound, the “No. of bone tuberculum” value ([1]; 10^−6M) was 147.8 ± 14.2 per well, the Calcified area ([1]; 10^−7M, Table 3 experiment (non-treated 4.46 ± 0.83)) was 11.25 ± 1.04 mm^2/well and the “No. of bone tuberculum” value ([1]; 10^−7M) was 189.5 ± 16.3 per well. The Calcified area [1, 5] was 9.87 ± 1.04 mm^2/well, the “No. of bone tuberculum” value ([1]; 10^−8M) was 161.8 ± 19.2 per well and the “No. of bone tuberculum” value ([1]; 10^−9M) was 153.8 ± 12.3 per well. The “Effect on calcification (in words)” value ([1]; at 10^−6M) was “prevented completely”, the “Effect on the number” value ([1]; at 10^−6M) was “not observed to affect” and the “Effect on calcification (in words)” value ([1]; at 10^−7 and 10^−8M) was “promote”. For the same compound, the “Effect on the number” value ([1]; at 10^−7 and 10^−8M) was “promote”.
